Experiment in all cases: growth of human tumour cells (NCI), 48 h
Test [1] concerns IGROV1 ovarian.
In test [2] the test system is RPMI-8226 leukemia.
The test system of test [3] is A498 renal.
Test [4] deals with DU-145 prostate.
Test [5] has as its system LOX IMVI melanoma.
For test [6], the system named is HCC-2998 colon.
Test [7] relates to PC-3 prostate.
The subject of test [8] is SF-295 CNS.
The test system of test [9] is SNB-75 CNS.
Test [10] deals with SK-MEL-28 melanoma.

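Exposure lasted 48 hours, with cells grown in 96-well plates and compounds tested at five concentrations. GI50: concentration for 50% inhibition of growth. TGI marks complete inhibition of growth.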 Some results are limits rather than exact numbers.

For `CCOC(=O)c1ccc(Nc2sc(C(=O)c3cccc([N+](=O)[O-])c3)c(N)c2C#N)cc1`, the GI50 in test [1] is 0.0244 µM; in test [2], 0.333 µM; in test [3], 0.0827 µM; in [4], 0.184 µM; in [5] it was 0.148 µM; in test [6], 2.78 µM. The GI50 in [7] was 0.179 µM; in test [8] it was 0.0228 µM; in [9], 0.116 µM; in test [10], 8.32 µM. In addition, the TGI is 26 µM in test [1]; 20.3 µM in test [2]; 5.04 µM in test [3]; 21.1 µM in [4]; 15.4 µM in test [5]; above 100 µM in test [6]. The TGI in [7] was above 32.1 µM; in [8], 0.102 µM; in test [9], 0.65 µM; in test [10], above 59.9 µM.

For the molecule `Nc1ccn(C2CC(O)C(CO)O2)c(=O)n1` (stereo not given), the GI50 in test [1], in test [2], in test [3], in [4], in test [5] and in [6] was above 5000 µM each time. Moreover, the GI50 in test [7], in test [8], in test [9] and in test [10] was above 5000 µM in each case. The TGI in [1], in [2], in test [3], in test [4], in [5] and in [6] was above 5000 µM each time. The TGI in test [7], in test [8], in [9] and in test [10] was above 5000 µM in each case.

Consider `CC1(C)N=C(N)N=C(N)N1c1cccc(CCCCc2ccccc2)c1`, for which the GI50 was 0.135 µM in [1]; 0.289 µM in [2]; 1.75 µM in test [3]; 0.351 µM in test [4]; 0.062 µM in test [5]; 0.195 µM in test [6]. Moreover, the GI50 was 0.0497 µM in test [7], 0.229 µM in test [8], 3.06 µM in [9] and 0.894 µM in test [10]. Moreover, the TGI in [1] was determined as 10.1 µM; in test [2], 2.72 µM; in test [3] it was 15.9 µM; in test [4], 15 µM; in [5], 14.9 µM; in [6], 3.82 µM. Further, the TGI is 3.09 µM in test [7], 5.79 µM in [8], 16.3 µM in [9] and 15.6 µM in test [10].

Take `C/C1=C\C/C=C(\C)[C@H]2CC(CC/C(C)=C/CC1)[C@@](C)(CO)O2`: the GI50 was 16 µM in test [1]; 40.6 µM in test [2]; 54.1 µM in test [3]; above 100 µM in test [4]; 23.3 µM in test [5]; above 100 µM in test [6]. In addition, the GI50 is 68.5 µM in test [7], 59.3 µM in [8], above 100 µM in test [9] and above 100 µM in test [10]. Further, the TGI was 56.5 µM in test [1]; above 100 µM in test [2]; above 100 µM in [3]; above 100 µM in test [4]; 54 µM in [5]; above 100 µM in test [6]. Moreover, the TGI in test [7], in test [8], in [9] and in test [10] was above 100 µM in each case.

(Values after PubChem BioAssay (NCI).)
